Reference: the CheMixHub viscosity set

Test: xn = mol fraction of the nth substance listed

CCCC(=O)O + CC(C)=O
viscosity [mPa·s], 101 kPa
Details | x1 = 0.0996 | x1 = 0.1883 | x1 = 0.3023 | x1 = 0.3759 | x1 = 0.5144 | x1 = 0.5977 | x1 = 0.7009 | x1 = 0.7989 | x1 = 0.9016 | x1 = 0.9275
298.15 K | 0.3862 | 0.4576 | 0.5666 | 0.6477 | 0.8181 | 0.9307 | 1.071 | 1.216 | 1.361 | 1.408
308.15 K | 0.351 | 0.4131 | 0.5047 | 0.5741 | 0.7153 | 0.8095 | 0.9246 | 1.041 | 1.158 | 1.197
318.15 K | 0.3183 | 0.3666 | 0.4489 | 0.5135 | 0.6265 | 0.7078 | 0.7969 | 0.8942 | 0.9947 | 1.018

CCOC(=O)C(=O)OCC + CC(C)=O
303.15 K, 101 kPa
Details | viscosity [mPa·s]
x1 = 0.0571 | 0.381
x1 = 0.1199 | 0.487
x1 = 0.1893 | 0.599
x1 = 0.2664 | 0.715
x1 = 0.3527 | 0.844
x1 = 0.4497 | 0.979
x1 = 0.5602 | 1.123
x1 = 0.6858 | 1.274
x1 = 0.8308 | 1.453

CCCCBr + CC(C)CO
viscosity [mPa·s], 101.33 kPa
Details | x2 = 0.101 | x2 = 0.2014 | x2 = 0.308 | x2 = 0.4025 | x2 = 0.5066 | x2 = 0.61 | x2 = 0.7006 | x2 = 0.8004 | x2 = 0.8984
298.15 K | 0.626 | 0.671 | 0.743 | 0.83 | 0.98 | 1.196 | 1.436 | 1.845 | 2.449
308.15 K | 0.549 | 0.576 | 0.624 | 0.682 | 0.783 | 0.934 | 1.1 | 1.387 | 1.807
318.15 K | 0.492 | 0.512 | 0.555 | 0.593 | 0.664 | 0.774 | 0.895 | 1.098 | 1.389

CCCCNCCCC + CC(C)CO
viscosity [mPa·s], 101.33 kPa
Details | 298.15 K | 308.15 K | 318.15 K
x1 = 0.0659 | 3.147 | 2.311 | 1.743
x1 = 0.0962 | 3.01 | 2.218 | 1.683
x1 = 0.1558 | 2.74 | 2.038 | 1.562
x1 = 0.1967 | 2.557 | 1.918 | 1.482
x1 = 0.2681 | 2.25 | 1.708 | 1.336
x1 = 0.3132 | 2.076 | 1.591 | 1.256
x1 = 0.3956 | 1.791 | 1.394 | 1.118
x1 = 0.4699 | 1.576 | 1.245 | 1.011
x1 = 0.5552 | 1.379 | 1.11 | 0.914
x1 = 0.6322 | 1.234 | 1.007 | 0.838
x1 = 0.7567 | 1.05 | 0.874 | 0.743
x1 = 0.8163 | 0.985 | 0.824 | 0.708
x1 = 0.8647 | 0.93 | 0.787 | 0.678
x1 = 0.8978 | 0.901 | 0.766 | 0.662
x1 = 0.9162 | 0.882 | 0.751 | 0.651

COCCO + CC(C)CO
Details | viscosity [mPa·s]
303.15 K, 101.3 kPa, x1 = 0.0962 | 2.478
303.15 K, 101.3 kPa, x1 = 0.2087 | 2.104
303.15 K, 101.3 kPa, x1 = 0.328 | 1.823
303.15 K, 101.3 kPa, x1 = 0.433 | 1.653
303.15 K, 101.3 kPa, x1 = 0.5976 | 1.493
303.15 K, 101.3 kPa, x1 = 0.6411 | 1.468
303.15 K, 101.3 kPa, x1 = 0.7261 | 1.431
303.15 K, 101.3 kPa, x1 = 0.8566 | 1.398
303.15 K, 101.3 kPa, x1 = 0.9229 | 1.391
308.15 K, 101.33 kPa, x1 = 0.1438 | 1.902
308.15 K, 101.33 kPa, x1 = 0.2792 | 1.664
308.15 K, 101.33 kPa, x1 = 0.3329 | 1.595
308.15 K, 101.33 kPa, x1 = 0.505 | 1.422
308.15 K, 101.33 kPa, x1 = 0.6648 | 1.32
308.15 K, 101.33 kPa, x1 = 0.7249 | 1.292
308.15 K, 101.33 kPa, x1 = 0.7936 | 1.264
308.15 K, 101.33 kPa, x1 = 0.8977 | 1.231

COCCO + CC(C)O
303.15 K, 101.3 kPa
Details | viscosity [mPa·s]
x1 = 0.0989 | 1.54
x1 = 0.1681 | 1.426
x1 = 0.3537 | 1.24
x1 = 0.388 | 1.222
x1 = 0.5422 | 1.196
x1 = 0.5877 | 1.202
x1 = 0.7821 | 1.268
x1 = 0.8235 | 1.288
x1 = 0.8851 | 1.324

CCCC(C)O (stereo unspecified) + CC(C)OC(C)C
viscosity [mPa·s], 100 kPa
Details | x2 = 0.0801 | x2 = 0.1597 | x2 = 0.2402 | x2 = 0.3503 | x2 = 0.4399 | x2 = 0.5598 | x2 = 0.6493 | x2 = 0.7372 | x2 = 0.8487 | x2 = 0.9379
293.15 K | 3.43 | 2.94 | 2.52 | 2.08 | 1.76 | 1.386 | 1.13 | 0.9 | 0.64 | 0.45
298.15 K | 2.87 | 2.44 | 2.1 | 1.74 | 1.48 | 1.176 | 0.969 | 0.783 | 0.57 | 0.42
303.15 K | 2.42 | 2.06 | 1.78 | 1.49 | 1.286 | 1.04 | 0.864 | 0.705 | 0.518 | 0.389
308.15 K | 2.04 | 1.74 | 1.5 | 1.26 | 1.09 | 0.89 | 0.75 | 0.62 | 0.47 | 0.36
313.15 K | 1.71 | 1.45 | 1.26 | 1.06 | 0.922 | 0.755 | 0.64 | 0.536 | 0.414 | 0.33
318.15 K | 1.42 | 1.2 | 1.05 | 0.89 | 0.78 | 0.642 | 0.547 | 0.467 | 0.375 | 0.306
323.15 K | 1.19 | 1.02 | 0.89 | 0.76 | 0.667 | 0.554 | 0.477 | 0.41 | 0.33 | 0.28

FC(F)(Cl)Cl + CC(F)F
101 kPa, x1 = 0.606
Details | viscosity [mPa·s]
295.47 K | 0.199
311.17 K | 0.1745

CCCCNCCCC + CCC(=O)O
viscosity [mPa·s], 101.33 kPa
Details | 293.15 K | 293.5 K | 298.15 K | 303.15 K | 308.15 K | 313.15 K | 318.15 K | 323.15 K
x2 = 0.2 | – | 2.45 | 2.21 | 2.05 | 1.87 | 1.69 | 1.54 | 1.44
x2 = 0.4 | 20.21 | – | 15.81 | 12.24 | 9.94 | 7.97 | 6.42 | 5.61
x2 = 0.5 | – | – | – | 48.04 | 35.66 | 27.31 | 21.32 | 17.49
x2 = 0.6 | 109.3 | – | 80.86 | 64.2 | 49.41 | 39.46 | 31.87 | 25.8
x2 = 0.7 | 125.9 | – | 94.32 | 72.81 | 54.5 | 42.04 | 34.15 | 27.7
x2 = 0.75 | 139.3 | – | 102.5 | 74.31 | 58.19 | 44.26 | 35.31 | 27.67
x2 = 0.8 | 16.74 | – | 14.24 | 11.85 | 10.22 | 8.75 | 7.62 | 6.98
